Laboratory results from patent publication US20140249573A1, “METHODS AND DEVICES FOR OCCLUDING BLOOD FLOW TO AN ORGAN” (A.A. CASH TECHNOLOGY LTD., priority 2011, published 2014).
Values joined by “and” are separate entries in the source; they are usually repeats but may differ in a detail not shown here. Equal values may be shown once.

How the values were obtained:
lymphocyte = settings: three female pigs, 60 mg/kg IV over 1 hour, the following day
Method: The protocol and design of all parts of this study were approved by the Animal Research Ethics Committee of Israel. Three female pigs (The Institute of Animal Research, Kibbutz Lahav, Israel) weighing 60 Kg each, were anesthetized with 10 mg/kg intramuscular ketamine hydrochloride and 4 mg/kg xylazine hydrochloride (Vetmarket, Israel). One ovary of each pig was exposed by a longitudinal midline incision. A conventional gastric band (Lap-band; Allergen, Irvine, Calif., USA) was modified according to some embodiments of the invention, to occlude blood flow to the ovaries. The band was wound around the ovarian hilum, and a zip tie was placed on the center of the band ring to reduce the diameter of the band's aperture. 10 ml saline was injected via the band's port thus completely blocking blood flow through the ovarian and uterine arteries and veins. The color and the morphology of the ovary were observed after occlusion of blood flow as well as after the bands were released. The other ovary in each pig was left unprotected (i.e. was left with natural blood flow, and thus completely exposed to chemotherapy). Heparin was administered intravenously before occlusion to prevent or reduce blood coagulation within the ovary throughout the occlusion time interval and a few hours thereafter. A control pig was left untreated. […]

ovary = settings: eight days after treatment
Method: The protocol and design of all parts of this study were approved by the Animal Research Ethics Committee of Israel. Three female pigs (The Institute of Animal Research, Kibbutz Lahav, Israel) weighing 60 Kg each, were anesthetized with 10 mg/kg intramuscular ketamine hydrochloride and 4 mg/kg xylazine hydrochloride (Vetmarket, Israel). One ovary of each pig was exposed by a longitudinal midline incision. A conventional gastric band (Lap-band; Allergen, Irvine, Calif., USA) was modified according to some embodiments of the invention, to occlude blood flow to the ovaries. The band was wound around the ovarian hilum, and a zip tie was placed on the center of the band ring to reduce the diameter of the band's aperture. 10 ml saline was injected via the band's port thus completely blocking blood flow through the ovarian and uterine arteries and veins. The color and the morphology of the ovary were observed after occlusion of blood flow as well as after the bands were released. The other ovary in each pig was left unprotected (i.e. was left with natural blood flow, and thus completely exposed to chemotherapy). Heparin was administered intravenously before occlusion to prevent or reduce blood coagulation within the ovary throughout the occlusion time interval and a few hours thereafter. A control pig was left untreated.
The ovaries blood supply was occluded for 16 hours after the drug administration interval (i.e. a total occlusion time interval exceeding 17 hours). The bands were then opened by drawing out the 10 ml of saline via the port.
Eight days after the chemo treatment the pigs were euthanized according to animal ethics procedures and the ovaries were removed and examined visually, removed, weighed and follicles were counted.

O=P1(N(CCCl)CCCl)NCCCO1 (stereo not shown) [Cyclophosphamide]
lymphocyte counts, decreased to % of the initial level (lymphocyte): 12% | size and number of follicles of occluded (protected) ovaries (ovary; all ovaries occluded during chemotherapy administration): comparable to the control animal | Weight of ovary, Occluded (ovary; ovary with blood supply occluded by band for more than 17 hours, 60 mg/kg IV over 1 hour, one value per pig, 60 mg/kg): 3.6 gr and 3.8 gr and 5.2 gr | visual appearance of unprotected ovaries (ovary; unprotected ovaries, in two of the three animals): visible signs of atrophy
